Series [1] addresses T1, Native human Factor XIa protease (Homo sapiens, UniProt P03951).
T1 construct: The Native human Factor XIa protease was purchased from Abcam; purchased Abcam ab62411
Description: Inhibition of activity of Factor XIa protease (chromogenic substrate S-2366). It is filed as biochemical. The conditions noted are these: S-2366 1 mM, 37° C. 10 minutes, absorption at 405 nm. In outline: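 Native human Factor XIa (final […]) in 100 mM Tris-HCl, 200 mM NaCl, 0.02% Tween 20, pH 7.4, preincubated with compound 5 min on ice; 1 mM S-2366 added, 10 min at 37° C. Absorbance at 405 nm versus 0.1% DMSO control; IC50 by nonlinear regression, compound 10,000 nM to […] final.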

Series [2] is described as follows: Metabolic stability in mouse liver microsomes. In kind it is in vitro ADME. Here is the method:
(§1) The experiment was intended to study the metabolic stability of the compounds of the present invention in dog and mouse liver microsomes.
(§2) A test compound and the compound of Comparative Example 1 were incubated with dog and mouse liver microsomes (the Corning Company. USA) respectively, and a coenzyme NADPH was added to start the reaction. 135 μL of acetonitrile containing an internal standard (IS) was added to wells of a corresponding plate after 0, 5, 15, 30 and 45 minutes respectively to terminate the reaction. After protein precipitation, the solution was centrifuged at 5.594 rpm for 15 minutes, and a supernatant was taken. The supernatant was diluted with water by 1:1 (volume ratio) and then analyzed by a LC-MS/MS method. Ketanserin was used as an internal reference compound, and two copies of Ketanserin were incubated in parallel.
(§3) A peak area ratio of analyte/internal standard (Aanalyte/A1s) was obtained by an instrument, and a remaining percentage (% Control) was calculated by ratios of Aanalyte/A1s in a sample at a non-zero time point and a sample at a zero time point. Ln (% Control) was plotted and fitted linearly with the incubation time. A scavenging constant (k, min^−1) and a scavenging half-life (T1/2, min) of the tested compound were calculated by the following equation.

Series [3] can be described thus: Pharmacokinetics in ICR mouse. In kind it is in vivo. The conditions noted are these: male, plasma; for AUC(0-t): read-out: Curve area AUC0-t; for half-life: read-out: Half-life period T1/2(h) (converted). Here is the method:
Taking an ICR mouse as a tested animal, the ICR mouse was administrated with the compound in Example 96 of the present invention by intravenous injection and intragastric administration, and drug concentrations in plasma at different times were determined by a LC/MS/MS method to study pharmacokinetic characteristics of the compound of the present invention in the mouse.
ICR mice, male, 29.2 g to 34.9 g, purchased from Beijing Vital River Laboratory Animal Technology Co., Ltd.
Preparation of drug administrated by intravenous injection: a proper amount of compound to be tested was added to a proper amount of DMAC: (30% Soltol HS 15): Saline=10%: 10%: 80% (v/v/v), and shaken in a vortex manner, so as to prepare a final solution with a concentration of 0.2 mg/mL.
Preparation of drug administrated by intragastric administration: a proper amount of compound to be tested was added to a proper amount of DMA: (30% Soltol HS 15): Saline=10%: 10%: 80% (v/v/v), and shaken in a vortex manner, so as to prepare a final solution with a concentration of 0.5 mg/mL.
ICR mice were divided into an intravenous injection group and an intragastric administration group (9 rats in single group).
Intravenous injection group: the drug was administrated by intravenous injection (according to a dosage of 1 mg/kg and a volume of 5 mL/kg) without fasting.
Intragastric administration group: the drug was administrated by intragastric administration (according to a dosage of 5 mg/kg and a volume of 10 mL/kg) after fasting overnight, and food was taken 4 hours after administration.
Intravenous injection group: about 80 μL of blood was collected into an EDTA-K2 anticoagulant tube through an orbit 0.083 hour, 0.25 hour, 0.5 hour, 1 hour, 2 hours, 4 hours, 8 hours, 12 hours and 24 hours after administration.
Intragastric administration group: about 80 μL of blood was collected through an orbit 0.25 hour, 0.5 hour, 1 hour, 2 hours, 4 hours, 8 hours, 12 hours and 24 hours before and after administration.
The whole blood sample was placed in an EDTA-K2 anticoagulant tube. Plasma was centrifugally separated (centrifugation conditions: 1,500 g, 10 minutes). The collected upper plasma was stored al −40° C. to −20° C. before analysis.
Contents of the compound to be tested in mouse plasma after intravenous and intragastric administration were determined by LC-MS/MS.

Series [4] is described as follows: Metabolic stability in dog liver microsomes. It is filed as in vitro ADME. Here is the method: as §1, §2, §3
The mark [5] stands for this setting: iv, injection administration 1 mg/kg.
The mark [6] stands for this setting: po, intragastric administration 5 mg/kg.

Where two headings read alike, the source gives them in different places.

Experimental findings from patent US20230373972A1, “PIPERAZINE DERIVATIVE, PREPARATION METHOD THEREFOR AND USE THEREOF” (Zhejiang Hisun Pharmaceutical Co., Ltd., priority 2020, published 2023) are described below.

T1 sequence (P03951 388-625 limits assumed): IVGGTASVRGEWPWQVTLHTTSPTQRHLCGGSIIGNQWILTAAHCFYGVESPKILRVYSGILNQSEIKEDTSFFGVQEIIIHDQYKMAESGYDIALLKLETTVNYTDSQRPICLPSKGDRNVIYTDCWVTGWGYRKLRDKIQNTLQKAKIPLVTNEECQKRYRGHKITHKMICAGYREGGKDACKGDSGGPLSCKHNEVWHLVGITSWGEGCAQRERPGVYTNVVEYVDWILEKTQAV
T1 sequence (P03951 19-387 partner limits assumed): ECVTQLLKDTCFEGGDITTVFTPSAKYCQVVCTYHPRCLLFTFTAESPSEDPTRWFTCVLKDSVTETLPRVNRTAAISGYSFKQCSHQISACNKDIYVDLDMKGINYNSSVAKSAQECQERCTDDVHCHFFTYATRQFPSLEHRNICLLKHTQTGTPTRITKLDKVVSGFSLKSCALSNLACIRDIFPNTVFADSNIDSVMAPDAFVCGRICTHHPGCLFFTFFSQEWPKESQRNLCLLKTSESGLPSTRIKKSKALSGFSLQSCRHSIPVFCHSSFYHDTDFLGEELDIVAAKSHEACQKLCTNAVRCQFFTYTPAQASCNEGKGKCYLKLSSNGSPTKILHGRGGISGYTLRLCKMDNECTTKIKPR

For `COCC[C@@H](C(=O)Nc1ccc2nn(C)cc2c1)N1CC(=O)N(c2cc(Cl)ccc2-n2cc(Cl)nn2)CC1=O` [Example 96, (S)-2-(4-(5-chloro-2-(4-chloro-1H-1,2,3-triazol-1-yl)phenyl)-2,5-dioxopiperazin-1-yl)-4-methoxy-N-(2-methyl-2H-indazol-5-yl)butanamide], the IC50 in series [1] was 42.8 nM. For the same compound, the half-life at 1 μM in series [2] (mouse liver microsomes 0.5 mg/mL, 1 μM compound, NADPH, read-out: Half-life period (T1/2 min) Mouse) came to 5.53 h; in series [4] (dog liver microsomes 0.5 mg/mL, 1 μM compound, NADPH, read-out: Half-life period (T1/2 min) Dog), 15.3 h. Besides, the “Half-life period and stability compared with Comparative Example 1” value in series [2] (mouse liver microsomes, in words) was “longer half-life period and a higher stability”; in series [4] (dog liver microsomes, in words), “longer half-life period and a higher stability”. In addition, the AUC(0-t) in series [3] (setting [5]) worked out at 1240 ng·h/mL; in series [3] (setting [6]) it was 4330 ng·h/mL. The half-life is 0.664 h in series [3] (setting [5]) and 1.84 h in series [3] (setting [6]). Moreover, the bioavailability in series [3] (po, intragastric 5 mg/kg vs injection 1 mg/kg, read-out: Bioavailability F(%)) was 69.8%. Moreover, the Cmax in series [3] (po, intragastric administration 5 mg/kg, read-out: Blood concentration Cmax) is 2040 ng/mL.
